Reference: patent EP0200607A1, “Surfactant chlorhexidine salts and compositions” (PIERRE FABRE COSMETIQUE, priority 1985, dated 1986)

How the values were obtained:
Solubility (qualitative) = settings: water
[1] = Acute toxicity, intraperitoneal LD50; assay type: in vivo
Description: (§1) La toxicité de ce nouveau sel de CHX a été vérifiée comparativement au tensioactrf sous forme acide de départ, au tensioactif neutralisé par l'ion sodium, à la CHX base et à l'association tensioactif neutralisé par l'ion sodium + CHX base, car il est bien connu que la toxicité d'une molécule peut être potentialisée par la présence d'un tensioactif.
(§2) Deux tests ont été utilisés : • 1- l'évaluation de la DL 50 par voie orale, • 2- l'évaluation de la DL 50 par voie intra-péritonéale.

[2] = Acute toxicity, oral LD50; assay type: in vivo
Description: as §1, §2

[3] = set-up: species or system cobaye; settings: in vivo
Description: On peut penser que cette différence de pouvoir moussant est apportée par le solvant propylèneglycol […] Tolérance : On s'est contenté de vérifier la bonne tolérance cutanée et oculaire du tensioactif acide éthoxycarboxylique et du nouveau sel de CHX de cet exemple, pour bien démontrer la parfaite inocuité de ce nouveau produit.
. tolérance cutanée cobaye :
On voit d'après ces résultats que cette tolérance est meilleure sur ce test pour le nouveau sel de CHX que pour l'acide éthoxycarboxylique. La différence d'épaisseur de pli de peau mesuré le 4ème jour d'application quotidienne est de 0,23 contre 1,2 mm, l'érythème de 1,4 contre 4.

[4] = set-up: species or system lapin; settings: in vivo
Description: . tolérance cutanée lapin :

[5] = Foaming power (10 inversions of a stoppered cylinder); assay type: physicochemical; settings: 50 ml of a 10 % active matter solution, 100 ml cylinder, 23°C
Experimental: _Le_pouvoir moussant de l'acide éthoxycarboxylique et de l'éthoxycarboxylate de CHX a été vérifié, et ce comparativement.
A cet effet, on prépare une solution de tensioactif à 10% de matière active. On prélève 50 ml de cette solution que l'on introduit dans une éprouvette de 100 ml (diamètre intérieur 26 mm et hauteur 235 mm). On bouche hermétiquement cette éprouvette et on la soumet à 10 retournements successifs pour provoquer la formation de mousse. Cette manipulation se fait à 23°C (température de la solution).

[6] = test system: Pseudomonas aeruginosa A 22; test: Antiseptic activity by dilution in liquid medium (MIC and MBC), with anionic surfactants; assay type: cell-based; settings: Pseudomonas aeruginosa A 22, 10^6 germes/ml
Description: de dilutions en milieu liquide, selon Peterson, Lance R., Denny, Aiken E., Gerding, Dale N. and Hall, Wendell H. :"determination of tolerance to antibiotic bactericidal on activity on Kivby-Baver susceptibility plates Am.J.Clin.Pathol. 74 : 645-650,1980.
Le but de la méthode est de déterminer la plus petite quantité d'un produit X qui exerce sur 10^6 cellules d'une flore bactérienne donnée une activité antiseptique de type bactériostatique ou bactéricide.
La méthode de dilution en milieu liquide permet de déterminer la CMI (concentration minimale inhibitrice-bacté- riostase) et la CMB (concentration minimale léthale-bactéricidie).
• . pipettes de 1 ml graduées au 1/100 en polystyrène cristal stériles, . pipettes Pasteur stériles, • . flacons en verre stériles de 30 ml, 100 ml, • . tubes à essai en verre PYREX stériles 65 x 13 mm, 160 x 16 mm, 25 x 200 mm et 18 x 180 mm, • . boîtes de Pétri, polystyrène cristal- stériles de 90 mm de diamètre, • . lumétron, colorimètre réf.401, • les milieux de culture liquides et gélosés sont adaptés à la croissance de l'espèce de microorganisme en test Pseudomonas aeruginosa. Un témoin de fertilité des milieux liquides et gélosés est réalisé à chaque expérimentation.
Les différents produits testés sont des solutions aqueuses d'alkyl éthoxycarboxylate de chlorhexidine (3%) et contenant un pourcentage variable de tensioactifs anioniques. Les solutions mères sont des dilutions au 1/10e des solutions précédentes.
Pseudomonas aeruginosa est ensemencé en stries sur une pente de gélose Tryptone Soya (CM 131 OXOID). On incube de 18 à 24 Heures à 32-35°C.
Pour le Pseudomonas aeruginosa, une transmission de 90 % représente une valeur de 2-10^8 germes/ml donc une dilution au 1/100e est nécessaire.
On prépare sur un portoir une série de tubes à hémolyse 65 x 13 mm stériles.
Chaque tube reçoit 1 ml de milieu de culture liquide dont la composition est adaptée à la croissance du germe (bouillon BN pour Pseudomonas aéruginosa).
Le tube reçoit 1 ml de la solution mère du produit à analyser. On homogénéise puis effectue des passages successifs au 1/2 jusqu'au dernier tube. Le volume dans tous les tubes est alors de 1 ml.
Toutes les dilutions sont ensemencées avec 1 ml de milieu de culture titrant […] par ml. Dans chaque tube on a alors 1.10^6 germes par ml.
Un tube sans antiseptique permet d'effectuer un dénombrement des microorganismes effectivement introduits dans le test et permet de s'assurer de la vitalité de la souche.
Dénombrement par la méthode de dilution-incorporation et incubation à l'étuve pendant 48 heures à 37°C.
La concentration minimale inhibitrice est la plus petite quantité de produit qui empêche le développement microbien (jugé à l'oeil) ;elle est exprimée en microgramme de chlorhexidine base par millilitre. […]

[7] = test system: Pseudomonas aeruginosa A 22; test: Antibacterial properties (Tableau I), Pseudomonas aeruginosa; assay type: cell-based
Description: (§3) Des expérimentations ont été conduites afin de vérifier si ce nouveau sel de CHX possédait une bonne activité antiseptique comparativement au digluconate de CHX, sel de CHX des plus connus et largement utilisé et ce comparativement à l'acide AEC, ce dernier pouvant avoir par lui-même des propriétés antiseptiques.
(§4) L'activité de ces trois produits a été testée sur quatre germes […] et il a été constaté que non seulement on obtenait une activité voisine de celle du digluconate de CHX, mais que de plus, cette activité était plus importante dans trois cas (voir tableau I).

[8] = test system: Escherichia coli ATCC 10536; test: Antibacterial properties (Tableau I), Escherichia coli; assay type: cell-based
Description: as §3, §4

Candida albicans = test: Antibacterial properties (Tableau I), Candida albicans; assay type: cell-based
Description: as §3, §4

Staphylo-coque aureus = test: Antibacterial properties (Tableau I), Staphylococcus aureus; assay type: cell-based
Description: as §3, §4

[9] = in vivo

[H]/N=C(\N/C(=N/[H])NCCCCCCNC(=N)NC(=N)Nc1ccc(Cl)cc1)Nc1ccc(Cl)cc1 [chlorhexidine base, 1,6-di-(p-chlorophényl-biguanido) hexane]
solubilité dans l'eau (Solubility (qualitative)): insoluble dans l'eau
LD50 ([1]; in vivo, ip, read-out: DL 50 voie intrapérito-néale): 47 to 100 mg/kg
DL 50 voie orale [2]: pas de mortalité

Alkyl éthoxycarboxylate de chlorhexidine [AEC de CHX]
différence d'épaisseur de pli de peau [3]: 0,23 mm
érythème [3]: 1,4
indice d'irritation primaire [4]: 0,25
Pouvoir moussant (mousse) [5]: 16 mL
CMI ([6]; aqueous solutions with 3% alkyl éthoxycarboxylate de chlorhexidine): 8 microgramme de chlorhexidine base par millilitre
CMB ([6]; sub-culture on neutralising medium): 8 microgramme de chlorhexidine base par millilitre

N=C(NCCCCCCNC(=N)NC(=N)Nc1ccc(Cl)cc1)NC(=N)Nc1ccc(Cl)cc1 [Digluconate de CHX, Digluconate de chlorhexidine]
MIC ([6]; A22, aqueous solutions with 3% alkyl éthoxycarboxylate de chlorhexidine, read-out: CMI): 8.75 µg/mL
MBC ([6]; A22, sub-culture on neutralising medium, read-out: CMB): 8.75 µg/mL

alkyl éthoxycarboxylique acide [AEC acide]
différence d'épaisseur de pli de peau [3]: 1,2 mm
érythème [3]: 4
indice d'irritation primaire [4]: 0,75
Pouvoir moussant (mousse) [5]: 26 mL
DL 50 voie intrapérito-néale [1]: 0,5 g/kg
Propriétés antibactériennes [7]: 6,2 mg/ml
Propriétés antibactériennes [8]: 12,5 mg/ml
Propriétés antibactériennes (Candida albicans): 50 mg/mL
Propriétés antibactériennes (Staphylo-coque aureus): 1,56 mg/ml
tolérance oculaire [9]: la mieux tolérée

Alkyl éthoxycarboxy-late de sodium
DL 50 voie orale [2]: 7,5 g/kg
